Laboratory results: patent publication US20220002309A1, “SSAO INHIBITORS AND USES THEREOF” (Metacrine, Inc., priority 2018, published 2022)

These compounds were tested against T1, Recombinant Human SSAO/VAP-1/AOC3 (Homo sapiens, UniProt Q16853) (assay: Human Semicarbazide-Sensitive Amine Oxidase (SSAO) Assay). Settings: recombinant enzyme; 30 minutes preincubation at 37° C.; benzylamine substrate; Amplex Ultra Red/HRP fluorescence.
T1 construct: purchased R&D systems 3957-AO
T1 sequence (Q16853 1-763): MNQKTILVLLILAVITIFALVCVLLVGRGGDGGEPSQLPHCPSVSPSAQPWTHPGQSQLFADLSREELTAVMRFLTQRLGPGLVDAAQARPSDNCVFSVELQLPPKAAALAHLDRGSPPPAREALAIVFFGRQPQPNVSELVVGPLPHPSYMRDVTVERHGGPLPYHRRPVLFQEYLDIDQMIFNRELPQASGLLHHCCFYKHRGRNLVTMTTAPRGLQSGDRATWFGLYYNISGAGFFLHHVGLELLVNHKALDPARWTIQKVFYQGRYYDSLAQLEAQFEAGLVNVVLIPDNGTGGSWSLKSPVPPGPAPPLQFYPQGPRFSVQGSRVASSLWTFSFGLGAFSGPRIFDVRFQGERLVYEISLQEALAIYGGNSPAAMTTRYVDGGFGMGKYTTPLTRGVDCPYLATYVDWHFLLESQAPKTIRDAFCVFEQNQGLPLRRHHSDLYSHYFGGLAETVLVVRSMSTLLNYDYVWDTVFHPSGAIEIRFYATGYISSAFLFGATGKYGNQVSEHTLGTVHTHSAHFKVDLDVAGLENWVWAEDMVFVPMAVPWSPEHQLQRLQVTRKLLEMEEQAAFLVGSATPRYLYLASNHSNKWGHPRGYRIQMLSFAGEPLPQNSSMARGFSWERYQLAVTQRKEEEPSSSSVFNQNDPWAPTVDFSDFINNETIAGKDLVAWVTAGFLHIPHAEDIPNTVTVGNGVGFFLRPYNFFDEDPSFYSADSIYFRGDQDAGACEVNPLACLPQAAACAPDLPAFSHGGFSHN
Type: biochemical
Protocol: Example B-1: Human Semicarbazide-Sensitive Amine Oxidase (SSAO) Assay
Compounds were dissolved in DMSO to provide a Concentration Response Curve (CRC; at 500 times the final concentration) over a range of 6-10 dilutions.
Recombinant Human SSAO/VAP-1/AOC3 (R&D systems; Catalog #3957-AO) was used to screen compound potency in vitro, according to previously described methods (J Pharmacol Exp Ther. 2013 November; 347(2):365-74). SSAO enzyme was suspended in 50 mM HEPES buffer to a working concentration of 2.5 μg/ml and 40 μL of this enzyme mixture was then added to each well of a F16 Black Maxisorp 96 well Plate (Nunc, Catalog #475515). Ten microliters of each test compound (at 5 times the final concentration) were added to each well, resulting in a final well volume of 50 μL of the enzyme and inhibitor mixture. The compounds were preincubated with the enzyme for 30 minutes at 37° C., prior to the addition of a 40 μL volume of Amplex Ultra Red (125 uM AUR; Molecular Probes, Catalog #A36006)/Horseradish peroxidase (2.5 U/ml HRP; Sigma-Aldrich Catalog #P8375) oxidase detection reagent containing cytochrome C (7.5 μM; Sigma-Aldrich Catalog #C7752). Cytochrome C was included in the AUR/HRP detection mixture to reduce the background fluorescence that can occur via the spontaneous redox reaction between AUR and HRP. The SSAO enzyme reaction was then initiated by adding 10 μL of the SSAO substrate, benzylamine (Sigma-Aldrich Catalog #B5136), and SSAO activity was measured in kinetic mode over a 30-120 minute sampling period (excit. 544 nm; emit 590 nm; cut off 570 nm; medium gain) to obtain IC50 values for enzyme activity in each treatment well.

IC50, ≤ 10 nM:
CO[C@H]1CC[C@H](NC(=O)C23CC(c4ccc(OC/C(=C/F)CN)cc4)(C2)C3)CC1 [Compound 3.04, 3-(4-(((E)-2-(aminomethyl)-3-fluoroallyl)oxy)phenyl)-N-((1r,4r)-4-methoxycyclohexyl)bicyclo[1.1.1] pentane-1-carboxamide]
NC/C(=C\F)COc1ccc(C23CCC(C(=O)NC4(C(F)(F)F)CCOCC4)(CC2)CC3)cc1 [Compound 2.152, (E)-4-(4-((2-(aminomethyl)-3-fluoroallyl)oxy)phenyl)-N-(4-(trifluoromethyl)tetrahydro-2H-pyran-4-yl)bicyclo[2.2.2]octane-1-carboxamide]
CC(C)(C)O[C@H]1C[C@@H](NC(=O)C23CCC(c4ccc(OC/C(=C/F)CN)cc4)(CC2)CC3)C1 [Compound 2.149, 4-(4-(((E)-2-(aminomethyl)-3-fluoroallyl)oxy)phenyl)-N-((1s,3s)-3-(tert-butoxy)cyclobutyl)bicyclo[2.2.2] octane-1-carboxamide]
COCCO[C@H]1CC[C@H](NC(=O)C23CCC(c4ccc(OC/C(=C/F)CN)cc4)(CC2)CC3)CC1 [Compound 2.142, 4-(4-(((E)-2-(aminomethyl)-3-fluoroallyl)oxy)phenyl)-N-((1r,4r)-4-(2-methoxyethoxy)cyclohexyl)bicyclo [2.2.2]octane-1-carboxamide]
COC1(CNC(=O)C23CCC(c4ccc(OC/C(=C/F)CN)cc4)(CC2)CC3)CCCCC1 [Compound 2.102, (E)-4-(4-((2-(aminomethyl)-3-fluoroallyl)oxy)phenyl)-N-((1-methoxycyclohexyl)methyl) bicyclo[2.2.2]octane-1-carboxamide]
CO[C@H]1CC[C@H](NC(=O)C23CCC(c4ccc(OC/C(=C/F)CN)cc4)(CC2)CC3)CC1 [Compound 2.104, 4-(4-(((E)-2-(aminomethyl)-3-fluoroallyl)oxy)phenyl)-N-((1r,4r)-4-methoxycyclohexyl)bicyclo[2.2.2] octane-1-carboxamide]
